Laboratory results published in US20160279190A1, “MODULATION OF AXON DEGENERATION” (GENENTECH, INC., priority 2008, published 2016).
“Also recorded” adds a separate entry of the source. Starred links: 1 amine or outer side, 2 acyl side, 3 side chain; linkers in the order of their positions; H or OH if unused. Positions of bridges follow the written chain, without caps; N, C: chain ends. Non-standard residues stand in square brackets, D forms with d. Residues, ends and D or L forms follow the SMILES beside them. Chains are numbered I, II in the order given. Actinocin(9to1) = Cc1c2oc3c(C)ccc(C(=O)[*:1])c3nc-2c(C(=O)[*:2])c(N)c1=O; NMeV = CN[C@H](C(=O)O)C(C)C; Sar = CNCC(=O)O

Key:
DRGs [1] = test: Campenot chamber local axon degeneration, anti-NGF in axon compartment; format: cell-based, mouse; details: for Axon Compartment (axon protected when inhibitor is in axon compartment) / Cell Body Compartment (axon protected when inhibitor is in cell body compartment): anti-NGF in axon compartment, 28 hours
Experimental: Teflon dividers (Tyler Research) were cleaned by washing in water and wiping them clean of any residual grease. Dividers were then soaked in Nochromix (Godax Laboratories)/sulfuric acid overnight, rinsed five times in distilled and autoclaved water (SQ water), boiled for 30 minutes, and then air-dried before use.
Mouse laminin (5 μg/ml in sterile filtered water; Invitrogen) was added to PDL coated 35 mm dishes (BD Biosciences) and they were incubated for 1 hour at 37° C., followed by two rinses in SQ water. The dishes were vacuum-dried and then air-dried in a laminar flow hood for 15 minutes. Prepared dishes were then scored with a pin rake (Tyler Research). […] High vacuum grease (VWR) was added to each Teflon divider under a dissection scope. The laminin coated PDL dishes were inverted and dropped onto the Teflon divider, with additional pressure added by use of a toothpick in the non-track-containing regions. Dishes were incubated for 1 hour at 37° C. Five hundred microliters of NBM+MC (50 ng/ml NGF) solution was added to each of the side compartments, and a grease barrier was added in front of the center cell slot.
Free E13.5 spinal cords were dissected from mouse embryos and placed into NBM+MC (25 ng/ml NGF) solution. DRGs were detached from the spinal cord with a tungsten needle. An NBM+MC-lubricated P200 pipette was used to move DRGs into a 1.5 ml tube. DRGs were pelleted with a tabletop centrifuge for 30 seconds. The supernate was discarded and 0.05% Trypsin/EDTA (cold) was added. The pellet was resolubilized with a pipette and incubated at 37° C. for 15 minutes with constant agitation (650 RPM). The sample was again centrifuged and the supernate discarded. The pellet was resuspended in warm NBM+MC (50 ng/ml NGF) solution and triturated with a flamed glass pipette 20 times, followed by trituration with a fire-bored glass pipette another 20 times. The samples were again centrifuged and the resulting pellets were resuspended in 0.5 ml NBM+MC (50 ng/ml NGF) solution. The cells were diluted to a final concentration of 2.5×10^6 cells/ml. The cell suspensions were loaded into a 1 ml syringe with a 22 gauge needle. The center slot of the Campenot divider was filled using the syringe (to a volume of at least 50 μl). The Campenot chamber was incubated overnight at 37° C. 2.5 ml NGF+MC (50 ng/ml NGF) solution was added to the center compartment and the grease gate was removed. The outer medium (cell body compartment) was replaced after three days with 2.5 ml NBM+MC medium (with 25 ng/ml NGF). After five days in culture, one distal compartment was washed three times with warmed NBM+MC (no NGF) solution. After the third wash, 500 μl NBM+MC (no NGF) solution was added to the axon compartment in combination with either 0.5% DMSO or an inhibitor. The cell body compartment was replaced with 2.5 ml NBM+MC medium (with 25 ng/ml NGF) containing either 0.5% DMSO or inhibitor.
After 28 hours of anti-NGF antibody treatment, 8% PFA/30% sucrose solution (see above) was added directly to the culture medium at a 1:1 dilution and incubated for 30 minutes. The Teflon divider was removed after the first 15 minutes of addition. The system was washed once with 2.5 ml PBS prior to immunostaining. Neurons were blocked in 5% BSA/0.2% triton in PBS for 30 minutes. The primary antibody Tuj1 (Covance) was added to a final dilution of 1:1000 in PBS containing 2% BSA and incubated overnight at 4° C. The dish was washed once with PBS. […] The dish was washed twice with PBS, and a 22×22 mm coverslip (VWR) was added with 350 μl of fluoromount G (Electron Microscopy Sciences). The neurons were visualized by use of a fluorescence microscope.
As described above, E13.5 DRGs were isolated and grown for 5 days in a Campenot chamber.

DRGs [2] = test: anti-NGF antibody (NGF withdrawal) screen for inhibitors of neuron or axon degeneration; format: cell-based, mouse; details: inhibitor 100 μM or 10 μM added 1 hour before 25 μg/ml anti-NGF antibodies; 20 hours; actin staining
Experimental: The anti-NGF antibody model described above in Example 1 was used in a screen for inhibitors of neuron or axon degeneration. A library of more than 400 small molecules (Tocris Bioscience) was tested to see which, if any, modulate degeneration observed in the presence of anti-NGF antibodies.
Mouse E13.5 embryos were dissected and placed into L15 medium (Invitrogen). The spinal cord was dissected out from the embryos with DRGs attached. The spinal cords with DRGs attached were placed into L15 medium+5% goat serum (Gibco) on ice. The DRGs were removed using a tungsten needle and the remaining spinal cord was disposed of. Eight well slides were filled with N3-F12 solution (23 ml Ham's F12, 1 ml N3 supplement, and 1 ml 1 M glucose) to which was added 25 ng/ml NGF (Roche). (N3 supplement was made by dilution of N3 100× concentrate, which was made by mixing the following ingredients, in the following order: 5.0 ml Hank's buffered saline solution (HBSS; Ca, Mg free; Invitrogen), 1.0 ml bovine serum albumin (10 mg/ml in HBSS=150 μm), 2.0 ml Transferrin (T1147-1G, human, 100 mg/ml in HBSS=1.1 mM), 1.0 ml sodium selenite (S9133-1MG, 0.01 mg/ml in HBSS=58 μM), 0.4 ml putrescine dihydrochloride (P5780-5G, 80 mg/ml in HBSS=500 mM), 0.2 ml progesterone (P8783-5G, 0.125 mg/ml in absolute ethanol=400 μM), 0.02 ml corticosterone (C2505-500MG, 2 mg/ml in absolute ethanol=5.8 mM), 0.1 ml triiodothyonine, sodium salt (T6397-100MG, 0.2 mg/ml in 0.01 N NaOH=300 μM), 0.4 ml insulin (16634-250MG, bovine pancreas, 241 U/mg, 25 mg/ml in 20 mM HCl=4.4 mM), for a total volume of 10.02 ml (can be stored at −20° C.). An N3 supplement stock was made by combining the following: 10 ml Pen/Strep (100×, Gibco), 10 ml glutamine (200 mM, Gibco), 10 ml MEM vitamins (100×, Gibco), 10 ml N3 concentrate (100×, see above), for a total volume of 40 ml. The mixture was filter sterilized using a 0.22 μm filter, and 1-2 ml aliquots were stored at −20° C.).
The DRGs were sectioned into halves, and placed in the center of each well of an 8-chamber slide (BD Biocoat PDL/Laminin coated glass, Becton Dickinson). The DRGs were permitted to attach to the slide at room temperature for 5-10 minutes, followed by an overnight incubation at 37° C. Inhibitors of choice were added at a concentration of 100 μM (top row) or 10 μM (bottom row) 1 hour before adding anti-NGF antibodies. The anti-NGF antibodies were added to the right half of the slide (4 wells) at a concentration of 25 μg/ml. After incubation for 20 hours at 37° C., the slides were fixed with 30% sucrose/8% paraformaldehyde (PFA) by adding 250 μl of the fix solution directly to the 250 μl of culture medium. (To make the 30% sucrose/8% PFA solution, the following ingredients were added to a 600 ml beaker including a stir bar: 250 ml 16% PFA (cat#15710-S, Electron Microscopy Sciences), 50 ml 10×PBS pH 7.4, and 150 g sucrose. The solution was mixed under low heat until dissolved, and then 6-8 drops of 1 M NaOH were added to bring the pH to 7.4. The volume was then brought to 500 ml with water in a graduated cylinder. The solution was mixed well, placed in aliquots, and frozen.) The slides were fixed for 30 minutes, followed by washing once with PBS. All cells were labeled with an actin stain (Alexa-568 conjugated phalloidin; 1:40; Invitrogen), a membrane dye (DiO; 1:200; Invitrogen), and a DNA stain (Hoechst 33258; 1:10,000; Invitrogen) in 0.1% Triton and 1% goat serum for 2 hours at room temperature. […]

DRG explants = test: pan-JNK inhibitors in DRG explants, NGF withdrawal assay; format: cell-based; details: anti-NGF plus inhibitor (FIG. 46)
Experimental: If DLK inhibition protects neurons from degeneration through limiting the phosphorylation of JNK2 and JNK3, then inhibitors of JNK2 or JNK3 should also protect neurons from cell death and axon degeneration. The ability of direct JNK inhibition to protect neurons against NGF withdrawal-dependent degeneration was also assessed. DRG explants were treated with anti-NGF and either pan-JNK inhibitor JNKV or JNKVIII, prior to assessment in the NGF withdrawal assay described above.

[3] = inhibitor 15 μM, listed as Act D

SMILES: O=C1NC(=O)C(c2cn(CCCO)c3ncccc23)=C1c1cnccn1 [GSK3 inhibitor XI]
- Axon Compartment (axon protected when inhibitor is in axon compartment) (DRGs [1]; inhibitor 30 μM): No (2)
- Cell Body Compartment (axon protected when inhibitor is in cell body compartment) (DRGs [1]; inhibitor 30 μM): Yes (2)

SMILES: C=C[C@@]1(C)CC(=O)[C@]2(O)[C@@]3(C)[C@@H](O)CCC(C)(C)[C@@H]3[C@H](O)[C@H](OC(C)=O)[C@@]2(C)O1 [Forskolin]
- Axon Compartment (axon protected when inhibitor is in axon compartment) (DRGs [1]; inhibitor 3 μM): Yes (2)
- Cell Body Compartment (axon protected when inhibitor is in cell body compartment) (DRGs [1]; inhibitor 3 μM): Yes (2)

SMILES: COc1ccc(CNC(=O)Nc2ncc([N+](=O)[O-])s2)cc1 [AR-A014418]
- Axon Compartment (axon protected when inhibitor is in axon compartment) (DRGs [1]; inhibitor 20 μM): No (1)
- Cell Body Compartment (axon protected when inhibitor is in cell body compartment) (DRGs [1]; inhibitor 20 μM): Yes (1)

SMILES: C[C@@H]1C[C@@H]([C@H](O)CC2CC(=O)NC(=O)C2)C(=O)[C@@H](C)C1 [Cycloheximide]
- Axon Compartment (axon protected when inhibitor is in axon compartment) (DRGs [1]; inhibitor 5 μM): No (2)
- Cell Body Compartment (axon protected when inhibitor is in cell body compartment) (DRGs [1]; inhibitor 5 μM): Yes (2)

SMILES: OC(CN1CCNCC1)Cn1c2ccc(Br)cc2c2cc(Br)ccc21 (centres unmarked) [Bax Channel Blocker]
- Comments (observations on protection against neurodegeneration upon NGF withdrawal) (DRGs [2]): Cell bodies detach

SMILES: CC(NC(=O)/C(C#N)=C/c1ccc(O)c(O)c1)c1ccccc1 (centres unmarked) [Tyrphostin B44]
- Comments (observations on protection against neurodegeneration upon NGF withdrawal) (DRGs [2]): Partial

SMILES: C[S+]([O-])c1ccc(-c2nc(-c3ccc(F)cc3)c(-c3ccncc3)[nH]2)cc1.Cl (centres unmarked) [SB 203580 HCI]
- Comments (observations on protection against neurodegeneration upon NGF withdrawal) (DRGs [2]): Partial

SMILES: CCN(c1ccccc1)c1cc(NC)[n+](C)c(C)n1.[Cl-] [ZD7288]
- Axon Compartment (axon protected when inhibitor is in axon compartment) (DRGs [1]; inhibitor 5 μM): No (3)
- Cell Body Compartment (axon protected when inhibitor is in cell body compartment) (DRGs [1]; inhibitor 5 μM): Yes (3)

SMILES: C=C[C@@]1(C)CC(=O)[C@]2(O)[C@@]3(C)[C@@H](O)CCC(C)(C)[C@@H]3[C@H](OC(=O)CCN(C)C)[C@H](OC(C)=O)[C@@]2(C)O1 [NKH 477]
- Comments (observations on protection against neurodegeneration upon NGF withdrawal) (DRGs [2]): Partial

SMILES: CCOc1nc(NC(=O)Cc2cc(OC)ccc2OC)cc(N)c1C#N [JNKVIII]
- most protective concentration (DRG explants): 4 µM
- protection of DRG explants from NGF-dependent degeneration (DRG explants): able to protect DRG explants from NGF-dependent degeneration

SMILES: N#C/C(=C1/Nc2ccccc2S1)c1ccnc(NCCc2cccnc2)n1 [JNKV]
- most protective concentration (DRG explants): 5 µM
- protection of DRG explants from NGF-dependent degeneration (DRG explants): able to protect DRG explants from NGF-dependent degeneration

SMILES: Cc1c2oc3c(C)ccc(C(=O)N[C@@H]4C(=O)N[C@H](C(C)C)C(=O)N5CCC[C@H]5C(=O)N(C)CC(=O)N(C)[C@@H](C(C)C)C(=O)O[C@@H]4C)c3nc-2c(C(=O)N[C@@H]2C(=O)N[C@H](C(C)C)C(=O)N3CCC[C@H]3C(=O)N(C)CC(=O)N(C)[C@@H](C(C)C)C(=O)O[C@@H]2C)c(N)c1=O [Actinomycin D] (I: T[dV]P[Sar][NMeV] / II: T[dV]P[Sar][NMeV]; ester I:1-I:C, II:1-II:C; linker I:N-II:N via Actinocin(9to1))
- formation of varicosities in locally NGF-deprived axons (DRGs [1]; cell body inhibitors added to cell body compartment: 30 μM SB415, 15 μM Act D): large number of axons with varicosities, as well as fragmented axons
- Axon Compartment (axon protected when inhibitor is in axon compartment) (DRGs [1]; inhibitor 15 μM): No (4)
- Cell Body Compartment (axon protected when inhibitor is in cell body compartment) (DRGs [1]; inhibitor 15 μM): Yes (4)
- Axon Compartment (axon protected when inhibitor is in axon compartment) (DRGs [1]; [3]): failed to prevent degeneration
- Cell Body Compartment (axon protected when inhibitor is in cell body compartment) (DRGs [1]; [3]): did not degenerate; also recorded: protected from local degeneration
